Converted amounts (≈) assume the structure as drawn. “And” between values parts separate entries of the source, which are not always exact repeats. Equal values may be shown once. Read-outs that look alike come from different tables or passages of the source.
What was measured:
[1] = tested on: Fusobacterium necrophorum ATCC 25286; assay: MIC by agar dilution method (Wilkins-Chalgren Agar); format: cell-based
Description: (§1) In this example, microbiological studies were initiated with Virginiamycin and other antibiotics so as to determine their potency in controlling liver abscesses. As Fusobacterium necrophorum has been associated with bovine liver abscesses in cattle, it was determined that microbiological studies involving this bacterium would be undertaken with representative examples of antibiotics including Virginiamycin.
(§2) The MIC's for Fusobacterium necrophorum was done by the agar dilution method. Two-fold serial dilutions of each compound was incorporated into Wilkins-Chalgren Agar plates. Each Fusobacterium necrophorum was propagated in Peptone-Yeast-Glucose broth and inoculated onto the plates with a multipoint inoculating device. The plates were incubated at 37°C in an atmosphere of 10% H₂, 5% CO₂ and 85% N₂, for 40 hours.

[2] = tested on: Fusobacterium necrophorum ATCC 27852; assay: as above; format: cell-based
Description: as §1, §2

[3] = tested on: Fusobacterium necrophorum; assay: MIC of Virginiamycin and ionophores alone and combined at fixed ratios, two-fold serial dilution of a stock solution; format: cell-based; conditions: for MIC Alone: antibiotic alone; for MIC: Fusobacterium necrophorum, read-out: MIC Alone
Description: In this example, microbiological studies were initiated with combinations of antibiotics from the Virginiamycin family of antibiotics and ionophore family of antibiotics so as to determine their potency in controlling liver abscesses. As Fusobacterium necrophorum has been associated with bovine liver abscess in cattle, it was determined that microbiological studies involving this bacterium would be undertaken. Since the liver abscess etiology is poorly defined, it is difficult to precisely extrapolate these studies to animal disease. […]
Virginiamycin was combined with an antibiotic from the ionophore family in a ratio expected in medicated feeds, eg. Salinomycin at 20 g/Ton and Virginamycin at 15 g/Ton have a ratio of 1.3:1. For the microbilogical studies, a stock solution was made up to contain Salinomycin and Virginiamycin in the same ratio of 1.3:1. The stock solution was serially diluted two fold. The dilutions were incubated with F. necr. The end point was the lowest concentrations antibiotics which inhibited the growth of F. necr., or MIC for minimal inhibitory concentration, eg. the MIC of Salinomycin was 5 µg/ml while that of Virginiamycin was 1 µg/ml.

[4] = tested on: Fusobacterium necrophorum Colorado Strain; assay: MIC by agar dilution method (Wilkins-Chalgren Agar); format: cell-based
Description: as §1, §2

[5] = tested on: liver abscess; assay: Incidence of liver abscess at slaughter in cattle fed a ration supplemented with Virginiamycin; format: in vivo; conditions: for No. of Animals With Liver Abscess: ad libitum, approximately 120 days, Total Animals 197 (control 26 of 199); for No. of Animals Without Liver Abscess: Total Animals 197
Description: A cattle ration was prepared using the following formula: […]
The ration was supplemented with varying proportions of Virginiamycin and fed, ad libitum, to approximately 200 cattle weighing between 650 lbs. and 850 lbs. The cattle were processed according to standard procedures for the facility, individually weighed and identified. The treatments were continued until the cattle reached an approximate weight of 1100 lbs. (approximately 120 days).
Virginiamycin was added to the ration in the following amounts: Table 2
At slaughter, livers were identified with the individual animal number and scored for liver abscess after examination in the manner required by USDA. Livers were palpated and suspicious area were excised and examined for the presence of liver abscesses.

[6] = tested on: Fusobacterium necrophorum (the two ATCC strains); assay: MIC of factors M and S of virginiamycin, one experiment, two ATCC strains taken together; format: cell-based; conditions: geometric mean for the two ATCC strains
Description: as §2
In the one experiment in which factors M and S of virginiamycin were tested, the MICs were 0.35 (geometric mean for the two ATCC strains) and greater than 32 µg/ml, respectively. Virginiamycin contains 75% of Factor M and 25% of Factor S.

[7] = Fusobacterium necrophorum, ATCC25286, 40 h
[8] = Fusobacterium necrophorum, ATCC27852, 40 h
[9] = Fasalocid : Virginiamycin, ratio 2:1
[10] = Fasalocid : Virginiamycin, ratio 3:1
[11] = Fusobacterium necrophorum, 40 h
[12] = strain ATCC 25286, 37°C, anaerobic atmosphere, 40 hours, * = geometric mean of more than one determination
[13] = strain ATCC 27852, 37°C, anaerobic atmosphere, 40 hours, * = geometric mean of more than one determination
[14] = Ferrensinmycin : Virginiamycin, ratio 1.3:1

Compound: CN(C)[C@@H]1C(O)=C(C(N)=O)C(=O)[C@@]2(O)C(O)=C3C(=O)c4c(O)ccc(Cl)c4[C@@](C)(O)[C@H]3C[C@@H]12 [Chlortetracycline]
- MIC [1, 7]: 0.02 µg/mL (≈ 0.0418 µM)
- MIC [2, 8]: 0.12 µg/mL (≈ 0.251 µM)

Compound: CC[C@H]1OC(=O)[C@H](C)[C@@H](O[C@H]2C[C@@](C)(OC)[C@@H](O)[C@H](C)O2)[C@H](C)[C@@H](O[C@@H]2O[C@H](C)C[C@H](N(C)C)[C@H]2O)[C@](C)(O)C[C@@H](C)C(=O)[C@H](C)[C@@H](O)[C@]1(C)O [Erythromycin]
- MIC [1, 7]: 8 µg/mL (≈ 10.9 µM)

Compound: CC[C@@H](C(=O)[C@@H](C)[C@@H](O)[C@H](C)CCc1ccc(C)c(O)c1C(=O)O)[C@H]1O[C@](CC)([C@H]2CC[C@](O)(CC)[C@H](C)O2)C[C@@H]1C [Fasalocid]
- MIC Combination [3, 9]: 1 µg/mL
- MIC Combination [3, 10]: 3 µg/mL
- MIC Alone [3]: 7 µg/mL and 10 µg/mL

Compound: CC[C@@H](C(=O)[C@@H](C)[C@@H](O)[C@H](C)CCc1ccc(C)c(O)c1C(=O)O)[C@H]1O[C@](CC)([C@H]2CC[C@](O)(CC)[C@H](C)O2)C[C@@H]1C [Lasalocid]
- MIC [4, 11]: 8.5 µg/mL (≈ 14.4 µM)
- MIC [1, 7]: 9.1 µg/mL (≈ 15.4 µM)
- MIC [2, 8]: 12 µg/mL (≈ 20.3 µM)

Compound: CC[C@@]1([C@@H]2O[C@@H]([C@H]3O[C@@](O)(CO)[C@H](C)C[C@@H]3C)C[C@@H]2C)CC[C@H]([C@]2(C)CC[C@]3(C[C@H](O)[C@@H](C)[C@@H]([C@@H](C)[C@@H](OC)[C@H](C)C(=O)O)O3)O2)O1 [Monensin]
- MIC [4, 11]: 4.2 µg/mL (≈ 6.26 µM)
- MIC [1, 7]: 6.4 µg/mL (≈ 9.54 µM)
- MIC [2, 8]: 3 µg/mL (≈ 4.47 µM)
- MIC [3]: 4 µg/mL

Compound: CN(C)[C@@H]1C(=O)C(C(N)=O)=C(O)[C@@]2(O)C(=O)C3=C(O)c4c(O)cccc4[C@@](C)(O)[C@H]3[C@H](O)[C@@H]12 [Oxytetracyline, Oxytetracycline]
- MIC [1, 7]: 0.03 µg/mL (≈ 0.0652 µM)
- MIC [2, 8]: 0.25 µg/mL (≈ 0.543 µM)

Compound: CC[C@@H](C(=O)[C@@H](C)[C@@H](O)[C@H](C)[C@@H]1O[C@@H]([C@@H](CC)C(=O)O)CC[C@@H]1C)[C@H]1O[C@]2(C=C[C@@H](O)[C@]3(CC[C@@](C)([C@H]4CC[C@](O)(CC)[C@H](C)O4)O3)O2)[C@H](C)C[C@@H]1C [Salinomycin]
- MIC [4, 11]: 5.7 µg/mL (≈ 7.59 µM)
- MIC [1, 7]: 3.6 µg/mL (≈ 4.79 µM)
- MIC [2, 8]: 4 µg/mL (≈ 5.33 µM)
- decrease in the MIC on combination [3]: 250 fold
- MIC [3]: 5 µg/mL

Compound: CC[C@H]1OC(=O)C[C@@H](O)[C@H](C)[C@@H](O[C@@H]2O[C@H](C)[C@@H](O[C@H]3C[C@@](C)(O)[C@@H](O)[C@H](C)O3)[C@H](N(C)C)[C@H]2O)[C@@H](CC=O)C[C@@H](C)C(=O)/C=C/C(C)=C/[C@@H]1CO[C@@H]1O[C@H](C)[C@@H](O)[C@@H](OC)[C@H]1OC [Tylosin]
- MIC [4, 11]: 1 µg/mL (≈ 1.09 µM)
- MIC [1, 7]: 0.8 µg/mL (≈ 0.873 µM)
- MIC [2, 8]: 1.4 µg/mL (≈ 1.53 µM)

Compound: Avoparcin
- MIC [1, 12]: 32.0 µg/mL
- MIC [2, 13]: 64.0 µg/mL

Compound: Ferrensinmycin
- MIC Combination [3, 14]: 0.6 µg/mL
- MIC Alone [3]: 0.5 µg/mL

Compound: Flavomycin
- MIC [1, 12]: 0.25 µg/mL
- MIC [2, 13]: 0.12 µg/mL

Compound: Virginiamycin
- No. of Animals With Liver Abscess ([5]; Vm 9.1 grams/ton in ration): 16
- No. of Animals Without Liver Abscess ([5]; Vm 9.1 grams/ton in ration): 181
- No. of Animals With Liver Abscess ([5]; Vm 22.7 grams/ton in ration): 12
- No. of Animals Without Liver Abscess ([5]; Vm 22.7 grams/ton in ration): 185
- No. of Animals With Liver Abscess ([5]; Vm 45.5 grams/ton in ration): 6
- No. of Animals Without Liver Abscess ([5]; Vm 45.5 grams/ton in ration): 191
- effect on the incidence of liver abscess ([5]; all dose groups vs control, Chi-Square Goodness of Fit): obvious beneficial effect
- MIC ([4]; Colorado Strain, 37°C, anaerobic atmosphere, 40 hours, * = geometric mean of more than one determination): 1.0* µg/ml
- MIC [1, 12]: 0.9* µg/ml
- effectiveness compared with Tylosin ([2]; strain ATCC 27852, from MICs): twice as effective as Tylosin
- MIC [2, 13]: 1.0* µg/ml
- MIC Combination [3, 9]: 1 µg/mL
- MIC Combination [3, 10]: 0.9 µg/mL
- MIC Combination [3, 14]: 0.5 µg/mL
- MIC Combination ([3]; Monensin : Virginiamycin, ratio 0.7:1): 0.5 µg/mL
- MIC Combination ([3]; Monensin : Virginiamycin, ratio 2:1): 0.01 µg/mL
- MIC Combination ([3]; Monensin : Virginiamycin, ratio 3:1): 0.7 µg/mL
- MIC Combination ([3]; Salinomycin : Virginiamycin, ratio 1:1): 0.7 µg/mL
- MIC Combination ([3]; Salinomycin : Virginiamycin, ratio 1.3:1): 0.02 µg/mL
- decrease in the MIC on combination ([3]; Salinomycin : Virginiamycin, ratio 1.3:1, vs alone): 50 fold
- MIC Alone [3]: 0.7 µg/mL

Compound: Virginiamycin factor M
- MIC [1, 12]: 0.5 µg/mL
- MIC [2, 13]: 0.25 µg/mL
- MIC [6]: 0.35 µg/mL

Compound: Zinc bacitracin
- MIC [2, 13]: 9.2 µg/mL
